Reference: patent US5283361A, “N-hydroxy-N-[3-[2-(halophenylthio)phenyl]prop-2-enyl]ureas as lipoxygenase inhibitors” (Eli Lilly and Company, priority 1992, dated 1994)

Key:
5-LO [1] = assay: In vitro antigen (ovalbumin)-induced contraction of sensitized guinea pig tracheal strips, Schultz-Dale reaction (Inhibition of 5-LO); type: cell-based; settings: Cavia porcellus, antigen (OA) 30 ng/ml, 30 min preincubation, with indomethacin 5 μM and pyrilamine 10 μM
Description: Male, Hartley strain guinea-pigs (200-250 g) were actively sensitized by three injections of ovalbumin (OA, 10 mg/kg). The OA was administered intraperitoneally on Days 1 and 3 and subcutaneously on Day 5. In vitro experiments were performed 21-25 days later.
On the day of the experiment, guinea pigs were killed by asphyxiation with CO2 and the tracheas removed, cleaned of surrounding connective tissue and cut into spiral strips. Each strip was divided in half for paired experiments. Tissues were placed in 10 ml jacketed tissue baths maintained at 37° C. and attached with cotton thread to Grass force-displacement transducers (FT03C). […] Tracheal strips were bathed in modified Krebs' solution of the following composition (millimolar) NaCl, 118.2;KCl, 4.6; CaCl2.2H2 O, 2.5; MgSO4.7H2 O, 1.2; NaHCO3,24.8; KH2 PO4, 1.0; and dextrose, 10.0. The buffer contained indomethacin (5 μM) which potentiated the contractions of the cysteinyl leukotriene (LT) by removing the influence of cyclooxygenase products. The tissue baths were aerated with 95% O2 :5% CO2. Tracheal strips were placed under a resting tension of 2 g, and the tissues were allowed a minimal stabilization period of 60 minutes before undergoing experimentation. Bath fluid was changed at 15 minute intervals during the stabilization period.
Cumulative concentration-response curves were obtained from tracheal strips by increasing the agonist concentration in the organ bath by half-log increments while the previous concentration remained in contact with the tissues (van Rossum, Arch. Int. Pharmacodyn. Ther., 143, 299-330 (1963)). Agonist concentration was increased after reaching the plateau of the contraction elicited by the preceeding concentration. One concentration-response curve was obtained from each tissue. To minimize variability between tissues, contractile responses were expressed as a percentage of the maximal response obtained with carbachol (10 μM), added to the bath at the end of the concentration-response curve. Initially, tissues were challenged with carbachol (10 μM) following the 60 minute stabilization period to insure tissue viability. After recording the maximal response to the initial carbachol challenge, the tissues were washed and reequilibrated for 60 minutes before starting the experimental protocol.
To evaluate the effects of novel 5-lipoxygenase inhibitors in the Schultz-Dale reaction, each compound was incubated with the tissues 30 minutes before starting the curves. Vehicle (DMSO) was given to the paired control tissue. Pyrilamine (10 μM) was added to all baths at this time to block the actions of released histamine. Responses obtained at the antigen concentration of 30 ng/ml were recorded in the absence and presence of drug and percent inhibition was calculated for each pair of tissues. IC50 valves were determined by linear regression.

5-LO [2] = assay: In vivo ovalbumin-induced increase in intratracheal pressure in passively sensitized guinea pigs (Inhibition of 5-LO); parameters: species or system guinea pig; settings: OA-induced increase in tracheal pressure; for Inhibition of 5-LO In Vivo Percent Inhibition (dose of 10 mg/kg): dose of 10 mg/kg (footnote a), po, 2 hr.
Description: Male Hartley guinea pigs (350-500 g) were passively sensitized against ovalbumin by i.p. administration of 0.3 ml of antiserum 2 days preceeding the experiment. Hyperimmune serum was prepared from actively sensitizing male guinea pigs conditioned with 2 mg of ovalbumin in 50% Complete Freund's Adjuvant i.p. on days 1 and 5. On day 21, the animals were bled and the serum collected and stored at -20° C. On the day of the experiment the passively sensitized guinea pigs were anesthetized with 35 to 40 mg/kg of pentobarbital sodium given i.p. The right jugular vein was cannulated with Tygon microbore tubing (o.d.=03) connected to a syringe for administration of selected drugs. Blood pressure was measured with a Statham pressure transducer connected to a Tygon catheter placed in the left carotid artery. The trachea was cannulated and each animal was ventilated with room air by means of a Harvard rodent respirator set to deliver a tidal volume of 1 ml/100 g body weight with a rate of 60 breaths/minute. Succinylcholine (5 mg/kg) was given i.v. to suppress spontaneous respiration. Intratracheal pressure, an index of total pulmonary resistance, was measured with a Statham pressure transducer connected to a T-tube on the tracheal cannula. […] Body temperature was maintained within normal limits by means of a Deltaphase isothermal pad. Prior to surgery, test compound or vehicle (PEG 400) was administered to each guinea pig by oral gavage and OA challenge was at designated times following oral dosing. The animals were pretreated i.v. with pyrilamine (5 mg/kg), propranolol (1 mg/kg) and indomethacin (10 mg/kg) 5 minutes prior to the OA challenge. OA-induced increase in tracheal pressure was expressed as a percentage of the maximal pressure obtained by clamping the trachea with a hemistat. To determine the effect of each drug, a % inhibition value was calculated from the vehicle and drug treated animals at each concentration tested.

Row | Compound | IC50 (5-LO [1]) | Inhibition of 5-LO In Vivo Percent Inhibition at 30 mg/kg, po, 2 hr. (5-LO [2]) | Inhibition of 5-LO In Vivo Percent Inhibition (dose of 10 mg/kg) (5-LO [2])
1 | NC(=O)N(O)C/C=C/c1cccc(F)c1Sc1ccc(F)cc1 [Example 6, N-hydroxy-N-[3-[2-(4-fluorophenylthio)-3-fluorophenyl]prop-2-enyl]urea] | 130 nM | 81% | 
2 | NC(=O)N(O)C/C=C/c1cc(F)ccc1Sc1ccc(F)cc1 [Example 4, N-hydroxy-N-[3-[2-(4-fluorophenylthio)-5-fluorophenyl]prop-2-enyl]urea] | 230 nM | 52% | 
3 | NC(=O)N(O)C/C=C/c1c(F)cccc1Sc1ccc(F)cc1 [Example 1, N-hydroxy-N-[3-[2-(4-fluorophenylthio)-6-fluorophenyl]-prop-2-enyl]urea] | 50 nM | 97% | 
4 | NC(=O)N(O)C/C=C/c1ccccc1Sc1ccc(Cl)cc1 [Example 5, N-hydroxy-N-[3-[2-(4-chlorophenylthio)phenyl]prop-2-enyl]urea] | 140 nM | 95% | 
5 | NC(=O)N(O)C/C=C/c1ccc(F)cc1Sc1ccc(F)cc1 [Example 3, N-hydroxy-N-[3-[2-(4-fluorophenylthio)-4-fluorophenyl]prop-2-enyl]urea] | 190 nM |  | 43%
6 | NC(=O)N(O)C/C=C/c1cccc(F)c1Sc1ccc(Cl)cc1 [Example 7, N-hydroxy-N-[3-[2-(4-chlorophenylthio)-3-fluorophenyl]prop-2-enyl]urea] | 90 nM |  | 77%
7 | NC(=O)N(O)C/C=C/c1ccccc1Sc1ccc(F)cc1 [Example 2, N-hydroxy-N-[3-[2-(4-fluorphenylthio)phenyl]prop-2-enyl]urea] | 100 nM | 96% | 
8 | NC(=O)N(O)C/C=C/c1c(F)cccc1Sc1ccc(Cl)cc1 [Example 8] | 130 nM | 46% | 
